From patent publication US20230346954A1, “N-1 BRANCHED IMIDAZOQUINOLINES, CONJUGATES THEREOF, AND METHODS” (3M INNOVATIVE PROPERTIES COMPANY, priority 2020, published 2023)

Legend:
Assay type in all cases: cell-based
human TLR8 = target: T1, human TLR8 (Homo sapiens, UniProt Q9NR97); experiment: TLR activation, HEK-BLUE-hTLR8 SEAP reporter cells; conditions: HEK-BLUE-hTLR8, 16-20 h; SEAP response at least 2x vehicle control
T1 construct: host or cells: HEK293 (HEK-BLUE-hTLR8)
T1 sequence (Q9NR97 27-1041): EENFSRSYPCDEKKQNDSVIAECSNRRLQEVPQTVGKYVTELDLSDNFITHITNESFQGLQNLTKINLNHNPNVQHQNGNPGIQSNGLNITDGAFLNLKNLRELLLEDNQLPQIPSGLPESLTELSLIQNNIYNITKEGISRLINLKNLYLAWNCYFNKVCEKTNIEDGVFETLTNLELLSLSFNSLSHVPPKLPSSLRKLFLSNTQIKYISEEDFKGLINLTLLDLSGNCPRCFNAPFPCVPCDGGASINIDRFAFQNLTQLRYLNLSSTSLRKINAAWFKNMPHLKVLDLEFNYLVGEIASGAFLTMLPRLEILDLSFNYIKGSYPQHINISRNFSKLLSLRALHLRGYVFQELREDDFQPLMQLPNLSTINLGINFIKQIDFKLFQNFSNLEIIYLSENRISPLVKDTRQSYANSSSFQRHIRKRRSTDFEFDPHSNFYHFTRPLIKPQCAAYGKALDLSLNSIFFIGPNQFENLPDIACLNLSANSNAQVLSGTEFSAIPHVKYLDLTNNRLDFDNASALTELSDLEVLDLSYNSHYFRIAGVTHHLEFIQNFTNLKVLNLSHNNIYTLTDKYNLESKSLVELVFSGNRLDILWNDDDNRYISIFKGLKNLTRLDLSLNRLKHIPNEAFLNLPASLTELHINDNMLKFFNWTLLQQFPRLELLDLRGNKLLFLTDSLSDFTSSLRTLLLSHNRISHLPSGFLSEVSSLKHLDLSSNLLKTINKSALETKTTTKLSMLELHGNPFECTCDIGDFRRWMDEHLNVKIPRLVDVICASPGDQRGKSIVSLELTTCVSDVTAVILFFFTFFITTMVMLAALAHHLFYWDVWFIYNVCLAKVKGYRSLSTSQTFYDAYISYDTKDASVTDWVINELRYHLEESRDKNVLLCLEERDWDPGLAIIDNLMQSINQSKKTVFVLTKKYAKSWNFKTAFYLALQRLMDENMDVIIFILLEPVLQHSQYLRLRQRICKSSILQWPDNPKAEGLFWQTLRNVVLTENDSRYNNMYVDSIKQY
Description: (§1) HEK-BLUE-hTLR7 or hTLR8 reporter cells were obtained from InvivoGen, San Diego, CA. According to the manufacturer's description, these reporter cells were prepared by co-transfection of HEK293 cells with an inducible secreted embryonic alkaline phosphatase (SEAP) reporter gene and either the human TLR7 or TLR8 gene. The SEAP reporter gene was placed under the control of an IFN-β minimal promoter fused to five NF-κB and AP-1-binding sites. In the presence of a TLR ligand, activation of NF-κB and AP-1 occurs, resulting in a corresponding increase in SEAP levels. […]
(§2) For each compound, hTLR7, hTLR8, and their respective null control HEK cells were screened. […] Cell culture supernatants containing the SEAP reporter were collected after an incubation period of 16-20 h in a cell culture incubator (37° C. and 5% CO2), and either analyzed immediately or stored at −80° C. SEAP levels were measured using the colorimetric enzyme assay (QUANTI-BLUE (InvivoGen) according to manufacturer's instructions.
(§3) Specifically, the minimum effective concentration of each compound (micromolar) was determined as the lowest concentration of the compound that produced a SEAP expression response at least 2× greater than that observed with the vehicle control wells.

human TLR7 = target: T2, human TLR7 (Homo sapiens, UniProt Q9NYK1); experiment: TLR activation, HEK-BLUE-hTLR7 SEAP reporter cells; conditions: HEK-BLUE-hTLR7, 16-20 h; SEAP response at least 2x vehicle control
T2 construct: host or cells: HEK293 (HEK-BLUE-hTLR7)
T2 sequence (Q9NYK1 27-1049): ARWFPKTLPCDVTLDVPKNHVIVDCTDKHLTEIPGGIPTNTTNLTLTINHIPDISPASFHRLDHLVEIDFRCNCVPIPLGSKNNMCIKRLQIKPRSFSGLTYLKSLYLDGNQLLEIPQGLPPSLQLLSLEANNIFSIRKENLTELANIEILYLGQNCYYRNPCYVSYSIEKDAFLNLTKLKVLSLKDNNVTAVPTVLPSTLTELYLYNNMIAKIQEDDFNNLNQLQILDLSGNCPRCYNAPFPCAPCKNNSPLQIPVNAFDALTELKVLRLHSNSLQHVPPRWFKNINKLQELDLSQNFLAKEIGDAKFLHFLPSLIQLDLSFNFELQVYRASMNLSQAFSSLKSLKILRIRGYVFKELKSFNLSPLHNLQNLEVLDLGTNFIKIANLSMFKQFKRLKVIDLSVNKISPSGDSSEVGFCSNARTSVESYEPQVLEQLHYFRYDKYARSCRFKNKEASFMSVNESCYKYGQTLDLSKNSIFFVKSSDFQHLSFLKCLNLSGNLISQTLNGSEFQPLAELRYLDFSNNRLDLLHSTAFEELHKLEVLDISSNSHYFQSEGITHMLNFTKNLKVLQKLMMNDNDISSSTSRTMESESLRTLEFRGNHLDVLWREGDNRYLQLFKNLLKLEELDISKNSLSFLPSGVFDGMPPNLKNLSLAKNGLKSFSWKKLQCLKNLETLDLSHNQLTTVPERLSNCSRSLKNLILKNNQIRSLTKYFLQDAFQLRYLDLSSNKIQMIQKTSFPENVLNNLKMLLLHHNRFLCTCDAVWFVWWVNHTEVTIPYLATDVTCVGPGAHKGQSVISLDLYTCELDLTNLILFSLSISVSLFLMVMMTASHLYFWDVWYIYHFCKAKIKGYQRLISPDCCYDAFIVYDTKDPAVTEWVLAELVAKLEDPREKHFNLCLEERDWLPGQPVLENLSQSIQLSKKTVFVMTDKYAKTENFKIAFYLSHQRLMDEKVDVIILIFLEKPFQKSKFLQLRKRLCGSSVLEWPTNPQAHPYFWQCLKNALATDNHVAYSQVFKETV
Description: as §1, §2, §3

[1] = tested on: Human peripheral blood mononuclear cells (PBMC); experiment: Cytokine induction in human cells (PBMC); conditions: 21-24 h, lowest concentration giving at least 2x negative control; for MEC to Induce Cytokine: IFN-alpha: ELISA; for MEC to Induce Cytokine: IFN-gamma / MEC to Induce Cytokine: TNF-alpha: multiplex bead assay
Description: Whole blood was obtained from healthy human donors and collected by venipuncture into vacutainer tubes or syringes containing EDTA. Human peripheral blood mononuclear cells (PBMC) were purified from the whole blood by density gradient centrifugation. Histopaque 1077 (15 mL, Sigma, St. Louis, MO) was transferred to 6×50 mL sterile polypropylene conical tubes. The Histopaque was overlayed with 15-25 mL of blood diluted 1:2 in Hank's Balanced Salts Solution (HBSS) (Gibco, Life Technologies, Grand Island, NY). The tubes were then centrifuged at 1370 revolutions per minute (rpm) for 30 min at 20° C., with no brake (400×g, GH 3.8A Rotor).
The interface (buffy coat) containing the PBMC was collected and placed in a new sterile 50 mL conical polypropylene centrifuge tube. The PBMC were mixed with an equal volume of HBSS (about 20 mL from the interface and about 20 mL of HBSS), and then centrifuged at 1090 rpm, 10 min, 20° C., with brake (270×g, GH 3.8A Rotor). After completing centrifugation, the cells were resuspended in 2-3 mL ACK Red blood cell lysis buffer (ammonium chloride potassium solution, Gibco, Life Technologies) and incubated for 2-5 min at 20° C. Next, HBSS (40 mL) was added to the cells, and the sample was centrifuged at 270×g for 10 min at 20° C. The supernatant was decanted, and the cell pellet was resuspended in 5 mL AIM V Medium (Gibco, Life Technologies). Cell aggregates and debris were removed by filtering the cell solution through a BD Falcon 70 micron nylon cell strainer (BD Biosciences, San Jose, CA).
The number of viable cells was determined by counting with a Miltenyi FACS instrument (Miltenyi Biotec Inc., San Diego, CA) or by using a hemacytometer. For determining cell viability with a hemacytometer, the cells were diluted 1/10 in 0.4% trypan blue and HBSS (specifically, 50 microliter of trypan blue+40 microliter of HBSS+10 microliter of cell solution were added to a microfuge tube and mixed). Ten microliters of the diluted cells were then applied to the hemacytometer, and the number of viable PBMC were determined by microscopy.
The PBMC sample was then resuspended in 96-well plates at a concentration of 8×10^5 cells/well in 0.1 mL of AIM-V medium. Each compound was solubilized in dimethyl sulfoxide (DMSO) to create a 3 mM stock solution. The stock solution was then further diluted with AIM-V medium to prepare the serial dilutions. The diluted compound (100 microliters) was then transferred to the PBMCs to produce testing sets with final compound concentrations of 30, 10, 3.3, 1.1, 0.37, 0.12, 0.04, 0.01 micromolar. The plates also had both positive and negative controls. The negative control wells contained only AIM-V medium with no example compound. The positive control wells contained a control set of imiquimod serially diluted to concentrations of 30, 10, 3.3, 1.1, 0.37, 0.12, 0.04, 0.01 micromolar. The concentrations used in the control set were selected to match the concentrations used in the testing set. The plates were then cultured at 37° C./5% CO2 for 21-24 h. Cell-free supernatants were harvested by centrifuging the 96-well plates at 2100 rpm, 23° C. for 10 min. Approximately 160 microliters of the supernatant was then stored in a NUNC 96-well plate, covered with the compression cap and stored at −80° C. until the cytokine analysis was done.
IFN-alpha cytokine levels (picograms/mL) were measured by ELISA (human IFN-alpha, pan specific, Mabtech, Cincinnati, OH). IFN-gamma and TNF-alpha levels (picograms/mL) were measured by multiplex bead assay (magnetic beads, R & D Systems, Minneapolis, MN) according to the manufacturer's instructions.
Specifically, the minimum effective concentration of each compound (micromolar) was determined as the lowest concentration of the compound that induced a measured cytokine response at a level ([…]) that was at least 2× greater than that observed with the negative control wells.

MEC to Produce TLR Activation: TLR 8 (human TLR8) | MEC to Produce TLR Activation: TLR 7 (human TLR7) | SMILES | MEC to Induce Cytokine: IFN-alpha [1] | MEC to Induce Cytokine: IFN-gamma [1] | MEC to Induce Cytokine: TNF-alpha [1]
1.1 µM | ≤0.01 µM | CCOC[C@H](Cc1ccc(OCCO)cc1)n1cnc2c(N)nc3ccccc3c21 [Example 1, (S)-2-(4-(2-(4-amino-1H-imidazo[4,5-c]quinolin-1-yl)-3-ethoxypropyl)phenoxy)ethan-1-ol] | ≤0.01 µM | ≤0.01 µM | ≤0.01 µM
1.1 µM | ≤0.01 µM | CCOC[C@H](Cc1ccc(OCCN)cc1)n1cnc2c(N)nc3ccccc3c21 [Example 2, (S)-1-(1-(4-(2-aminoethoxy)phenyl)-3-ethoxypropan-2-yl)-1H-imidazo[4,5-c]quinolin-4-amine] | ≤0.01 µM | ≤0.01 µM | ≤0.01 µM
